Assay results published in PubChem BioAssay (NCI).
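GI50 marks 50% less growth. TGI is the concentration that stops growth completely.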

How the values were obtained:
Assay in all cases: NCI-60 cell line screen, 384-well format
MALME-3M melanoma = tested on: MALME-3M melanoma
TK-10 renal = tested on: TK-10 renal
HCT-116 colon = tested on: HCT-116 colon
RXF 393 renal = tested on: RXF 393 renal
SK-MEL-5 melanoma = tested on: SK-MEL-5 melanoma
HCT-15 colon = tested on: HCT-15 colon
786-0 renal = tested on: 786-0 renal
NCI-H226 lung = tested on: NCI-H226 lung
COLO 205 colon = tested on: COLO 205 colon
RPMI-8226 leukemia = tested on: RPMI-8226 leukemia
EKVX NSCLC = tested on: EKVX NSCLC
A549 NSCLC = tested on: A549 NSCLC
SNB-75 CNS = tested on: SNB-75 CNS
UO-31 renal = tested on: UO-31 renal
K-562 leukemia = tested on: K-562 leukemia
UACC-257 melanoma = tested on: UACC-257 melanoma
SN12C renal = tested on: SN12C renal
HCC-2998 colon = tested on: HCC-2998 colon
KM12 colon = tested on: KM12 colon
A498 renal = tested on: A498 renal
SF-539 CNS = tested on: SF-539 CNS
MDA-MB-468 breast = tested on: MDA-MB-468 breast
CAKI-1 renal = tested on: CAKI-1 renal
M14 melanoma = tested on: M14 melanoma
OVCAR-4 ovarian = tested on: OVCAR-4 ovarian
NCI/ADR-RES ovarian = tested on: NCI/ADR-RES ovarian
HOP-62 NSCLC = tested on: HOP-62 NSCLC
BT-549 breast = tested on: BT-549 breast
U251 glioblastoma = tested on: U251 glioblastoma
SK-OV-3 ovarian = tested on: SK-OV-3 ovarian
SK-MEL-28 melanoma = tested on: SK-MEL-28 melanoma
CCRF-CEM leukemia = tested on: CCRF-CEM leukemia
T-47D breast = tested on: T-47D breast
OVCAR-3 ovarian = tested on: OVCAR-3 ovarian
HOP-92 NSCLC = tested on: HOP-92 NSCLC
SF-268 CNS = tested on: SF-268 CNS
HL-60(TB) leukemia = tested on: HL-60(TB) leukemia
IGROV1 ovarian = tested on: IGROV1 ovarian
ACHN renal = tested on: ACHN renal
HT29 colon = tested on: HT29 colon
MCF7 breast = tested on: MCF7 breast
NCI-H522 lung = tested on: NCI-H522 lung
MDA-MB-435 melanoma = tested on: MDA-MB-435 melanoma
SNB-19 CNS = tested on: SNB-19 CNS
NCI-H322M lung = tested on: NCI-H322M lung
SW-620 colon = tested on: SW-620 colon
HS 578T breast = tested on: HS 578T breast
NCI-H460 NSCLC = tested on: NCI-H460 NSCLC
DU-145 prostate = tested on: DU-145 prostate
SR leukemia = tested on: SR leukemia
MDA-MB-231 breast = tested on: MDA-MB-231 breast
UACC-62 melanoma = tested on: UACC-62 melanoma
OVCAR-8 ovarian = tested on: OVCAR-8 ovarian
LOX IMVI melanoma = tested on: LOX IMVI melanoma
PC-3 prostate = tested on: PC-3 prostate
MOLT-4 leukemia = tested on: MOLT-4 leukemia
NCI-H23 lung = tested on: NCI-H23 lung
SF-295 CNS = tested on: SF-295 CNS

Work on CC(C)(O)CS(=O)(=O)Nc1ccc2c(c1)CCN(C(=O)COc1cccnc1)C2 yielded a GI50 (MALME-3M melanoma) of 83.5 nM, a TGI (MALME-3M melanoma) of 258 nM and a GI50 (TK-10 renal) of 32.3 nM. The TGI (TK-10 renal) was 92 nM, the GI50 (HCT-116 colon) was under 10 nM and the TGI (HCT-116 colon) was under 10 nM. For the same compound, the GI50 (RXF 393 renal) was 18.3 nM, the TGI (RXF 393 renal) was 35.6 nM and the GI50 (SK-MEL-5 melanoma) was 20.8 nM. For the same compound, the TGI (SK-MEL-5 melanoma) was 40.3 nM, the GI50 (HCT-15 colon) was 33.9 nM and the TGI (HCT-15 colon) was 108 nM. For the same compound, the GI50 ([…]-0 renal) was 18.6 nM, the TGI (786-0 renal) was 34 nM and the GI50 (NCI-H226 lung) was 871 nM. The TGI (NCI-H226 lung) was 26000 nM, the GI50 (COLO 205 colon) was under 10 nM and the TGI (COLO 205 colon) was under 10 nM. For the same compound, the GI50 (RPMI-8226 leukemia) was 43.6 nM, the TGI (RPMI-8226 leukemia) was 163 nM and the GI50 (EKVX NSCLC) was 46.4 nM. For the same compound, the TGI (EKVX NSCLC) was 164 nM, the GI50 (A549 NSCLC) was 234 nM and the TGI (A549 NSCLC) was 494 nM. For the same compound, the GI50 (SNB-75 CNS) was 17.8 nM, the TGI (SNB-75 CNS) was 32.6 nM and the GI50 (UO-31 renal) was 19.5 nM. It also gave a TGI (UO-31 renal) of 35.7 nM, a GI50 (K-562 leukemia) of under 10 nM and a TGI (K-562 leukemia) of 10.9 nM. For the same compound, the GI50 (UACC-257 melanoma) was 143 nM, the TGI (UACC-257 melanoma) was 590 nM and the GI50 (SN12C renal) was under 10 nM. The TGI (SN12C renal) was under 10 nM, the GI50 (HCC-2998 colon) was 21.7 nM and the TGI (HCC-2998 colon) was 42.1 nM. The GI50 (KM12 colon) was 17.3 nM, the TGI (KM12 colon) was 43.2 nM and the GI50 (A498 renal) was 390 nM. For the same compound, the TGI (A498 renal) was 3610 nM, the GI50 (SF-539 CNS) was under 10 nM and the TGI (SF-539 CNS) was under 10 nM. It also gave a GI50 (MDA-MB-468 breast) of 21.7 nM, a TGI (MDA-MB-468 breast) of 39.7 nM and a GI50 (CAKI-1 renal) of 20.4 nM. The TGI (CAKI-1 renal) was 37.9 nM, the GI50 (M14 melanoma) was 19.1 nM and the TGI (M14 melanoma) was 33.6 nM. It also gave a GI50 (OVCAR-4 ovarian) of 31.3 nM, a TGI (OVCAR-4 ovarian) of 78.2 nM and a GI50 (NCI/ADR-RES ovarian) of 145 nM. For the same compound, the TGI (NCI/ADR-RES ovarian) was 279 nM, the GI50 (HOP-62 NSCLC) was 25 nM and the TGI (HOP-62 NSCLC) was 52.2 nM. The GI50 (BT-549 breast) was 21.6 nM, the TGI (BT-549 breast) was 40.1 nM and the GI50 (U251 glioblastoma) was under 10 nM. The TGI (U251 glioblastoma) was 12.8 nM, the GI50 (SK-OV-3 ovarian) was 10 nM and the TGI (SK-OV-3 ovarian) was 23.6 nM. It also gave a GI50 (SK-MEL-28 melanoma) of 22.8 nM, a TGI (SK-MEL-28 melanoma) of 43.4 nM and a GI50 (CCRF-CEM leukemia) of under 10 nM. For the same compound, the TGI (CCRF-CEM leukemia) was under 10 nM, the GI50 (T-47D breast) was under 10 nM and the TGI (T-47D breast) was under 10 nM. For the same compound, the GI50 (OVCAR-3 ovarian) was under 10 nM, the TGI (OVCAR-3 ovarian) was 12.2 nM and the GI50 (HOP-92 NSCLC) was 121 nM. For the same compound, the TGI (HOP-92 NSCLC) was 320 nM, the GI50 (SF-268 CNS) was 20 nM and the TGI (SF-268 CNS) was 35 nM. It also gave a GI50 (HL-60(TB) leukemia) of under 10 nM, a TGI (HL-60(TB) leukemia) of under 10 nM and a GI50 (IGROV1 ovarian) of 19 nM. The TGI (IGROV1 ovarian) was 34.2 nM, the GI50 (ACHN renal) was 37 nM and the TGI (ACHN renal) was 127 nM. The GI50 (HT29 colon) was 36 nM, the TGI (HT29 colon) was 102 nM and the GI50 (MCF7 breast) was 23.1 nM. The TGI (MCF7 breast) was 48 nM, the GI50 (NCI-H522 lung) was under 10 nM and the TGI (NCI-H522 lung) was under 10 nM. It also gave a GI50 (MDA-MB-435 melanoma) of 20 nM, a TGI (MDA-MB-435 melanoma) of 34.6 nM and a GI50 (SNB-19 CNS) of 14.9 nM. For the same compound, the TGI (SNB-19 CNS) was 29.6 nM, the GI50 (NCI-H322M lung) was 10.9 nM and the TGI (NCI-H322M lung) was 38.9 nM. The GI50 (SW-620 colon) was under 10 nM, the TGI (SW-620 colon) was under 10 nM and the GI50 (HS 578T breast) was 17.3 nM. The TGI (HS 578T breast) was 32.4 nM, the GI50 (NCI-H460 NSCLC) was 239 nM and the TGI (NCI-H460 NSCLC) was 435 nM. For the same compound, the GI50 (DU-145 prostate) was 22.6 nM, the TGI (DU-145 prostate) was 45.9 nM and the GI50 (SR leukemia) was 29 nM. It also gave a TGI (SR leukemia) of 60.4 nM, a GI50 (MDA-MB-231 breast) of 43.5 nM and a TGI (MDA-MB-231 breast) of 135 nM. The GI50 (UACC-62 melanoma) was 31.3 nM, the TGI (UACC-62 melanoma) was 74.9 nM and the GI50 (OVCAR-8 ovarian) was under 10 nM. The TGI (OVCAR-8 ovarian) was under 10 nM, the GI50 (LOX IMVI melanoma) was 33.1 nM and the TGI (LOX IMVI melanoma) was 170 nM. For the same compound, the GI50 (PC-3 prostate) was 10.8 nM, the TGI (PC-3 prostate) was 23.2 nM and the GI50 (MOLT-4 leukemia) was under 10 nM. For the same compound, the TGI (MOLT-4 leukemia) was under 10 nM, the GI50 (NCI-H23 lung) was 29.1 nM and the TGI (NCI-H23 lung) was 78.7 nM. The GI50 (SF-295 CNS) was 29.5 nM and the TGI (SF-295 CNS) was 74.7 nM.
